Source: PMC7380940, “Alterations in the intrinsic properties of striatal cholinergic interneurons after dopamine lesion and chronic L-DOPA” (eLife, 2020)

Tested on: T1, Hyperpolarization-activated cyclic nucleotide-gated (HCN) channels (native, isoform not resolved)
T1 construct: native HCN current (Ih) in striatal cholinergic interneurons, acute slices
Assay: whole-cell voltage-clamp of Ih in striatal slices, concentration-response
Format: cell-based, Mus musculus
Source text: whole-cell voltage-clamp of Ih in striatal slices, concentration-response on Hyperpolarization-activated cyclic nucleotide-gated (HCN) channels (native, isoform not resolved) | Dependence of Ih density (as measured on Figure 3E) on ZD7288 concentration.

IC50: 1400 nM
Structure (SMILES): CC/[N+](c1ccccc1)=c1\cc(NC)n(C)c(C)n1 [ZD7288]
